For this test, the target named is T1, human RXFP1 (Homo sapiens, UniProt Q9HBX9).
T1 construct: expressed in transfected cells
T1 sequence (Q9HBX9 1-757): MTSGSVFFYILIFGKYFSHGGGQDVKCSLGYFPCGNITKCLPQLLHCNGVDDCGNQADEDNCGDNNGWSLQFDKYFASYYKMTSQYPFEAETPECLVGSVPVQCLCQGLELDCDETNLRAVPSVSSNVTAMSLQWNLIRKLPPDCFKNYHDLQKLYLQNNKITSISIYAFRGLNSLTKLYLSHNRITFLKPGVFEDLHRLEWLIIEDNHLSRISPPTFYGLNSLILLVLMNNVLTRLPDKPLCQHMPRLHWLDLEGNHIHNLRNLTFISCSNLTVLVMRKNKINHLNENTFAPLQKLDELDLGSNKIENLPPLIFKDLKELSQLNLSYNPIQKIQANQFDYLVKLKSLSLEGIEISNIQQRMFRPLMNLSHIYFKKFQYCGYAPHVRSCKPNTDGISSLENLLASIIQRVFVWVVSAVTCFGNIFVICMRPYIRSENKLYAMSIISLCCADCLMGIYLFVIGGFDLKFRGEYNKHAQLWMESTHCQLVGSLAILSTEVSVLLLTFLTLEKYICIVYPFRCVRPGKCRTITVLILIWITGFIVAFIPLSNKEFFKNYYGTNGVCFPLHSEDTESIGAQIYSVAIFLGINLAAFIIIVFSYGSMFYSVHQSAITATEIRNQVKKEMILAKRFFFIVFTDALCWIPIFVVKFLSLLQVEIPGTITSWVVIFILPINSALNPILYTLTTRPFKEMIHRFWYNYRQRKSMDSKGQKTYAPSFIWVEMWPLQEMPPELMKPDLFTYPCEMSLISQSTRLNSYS
As to the kind of experiment: RXFP1 cAMP assay (hRXFP1 HEK293 cAMP assay, HTRF). The class given is cell-based. Particulars: HEK293 cells stably expressing human RXFP1, 30 min at room temperature, read-out: cAMP hRXFP1 HEK293 Assay EC50. The gist of the method: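 hRXFP1-HEK293 stable line; HBSS + Ca/Mg, 20 mM HEPES, 0.05% BSA, 0.5 mM IBMX; cpd 0.010 nM–50 μM, 2% DMSO; 30 min RT; lysis, HTRF cAMP detection; 4-PL fit.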
(In general: Cyclic AMP is a second messenger, typically raised through Gs and lowered through Gi signalling.)
Broadly, the EC50 is the concentration needed to bring the measured effect to its halfway point. Consider `COc1ccc(C2CCN(CC(C)(C)O)C2)cc1C(=O)N[C@@H]1C2CCC(C2=CC2CC2)[C@@H]1C(=O)Nc1ccc(F)c(C(F)(F)F)c1` (stereo partly shown) [compound 601], for which the EC50 was 108 nM.

Regarding `COc1ccc(C2=NOC3COCC23)cc1C(=O)N[C@H]1[C@@H](C(=O)NC2CC3(C2)CC(F)(F)C3)[C@H]2CC[C@@H]1/C2=C\C1CC1` (stereo partly shown) [compound 605], the EC50 was 118 nM. `COc1ccc(C2=NOC3COCC23)cc1C(=O)N[C@H]1[C@@H](C(=O)NCc2ccccc2C2CC2)[C@H]2CC[C@@H]1/C2=C\C1CC1` (stereo partly shown) [compound 606]: the EC50 came to 121 nM.

For `COc1ccc(C2CCCN2CC(C)(C)O)cc1C(=O)N[C@@H]1C2CCC(C2=CC2CC2)[C@@H]1C(=O)Nc1ccc(F)c(C(F)(F)F)c1` (stereo partly shown) [compound 607], the EC50 came out at 128 nM. Consider `COc1ccc(C2=NOC3COCC23)cc1C(=O)N[C@H]1[C@@H](C(=O)N[C@@H](C)C2(C)CC2)[C@H]2CC[C@@H]1/C2=C\C1CC1` (stereo partly shown) [compound 609], for which the concentration for a half-maximal effect (EC50) is 130 nM.

For `COc1ccc(C2=NOC3COCC23)cc1C(=O)N[C@H]1[C@@H](C(=O)NC2Cc3ccccc3C2)[C@H]2CC[C@@H]1/C2=C\C1CC1` (stereo partly shown) [compound 610], the EC50 was 132 nM. Next, `CCC(CC)NC(=O)[C@@H]1[C@H](NC(=O)c2cc(C3=NOC4COCC34)ccc2OC)[C@@H]2CC[C@H]1/C2=C/C1CC1` (stereo partly shown) [compound 611]: 133 nM.

For `COc1ccc(C2=NOC3COCC23)cc1C(=O)N[C@H]1[C@@H](C(=O)NCCC(C)(C)C)[C@H]2CC[C@@H]1/C2=C\C1CC1` (stereo partly shown) [compound 612], the EC50 was 134 nM.

As to `COc1ccc(C2=NOC3COCC23)cc1C(=O)N[C@H]1[C@@H](C(=O)NCc2ccccc2C#N)[C@H]2CC[C@@H]1/C2=C\C1CC1` (stereo partly shown) [compound 613], the EC50 is 137 nM. Next, `CCCCNC(=O)[C@@H]1[C@H](NC(=O)c2cc(C3=NOC4COCC34)ccc2OC)[C@@H]2CC[C@H]1/C2=C/C1CC1` (stereo partly shown) [compound 614]: 138 nM; `COc1ccc(-c2cc(C(=O)N3CC[C@@H](O)C3)on2)cc1C(=O)N[C@H]1[C@@H](C(=O)Nc2ccc(F)c(C(F)(F)F)c2)[C@H]2CC[C@@H]1/C2=C\C1CC1` [compound 617]: 153 nM; `COc1ccc(C2=NOC(C3(O)CC3)C2)cc1C(=O)N[C@H]1[C@@H](C(=O)NCC(C)(C)C)[C@H]2CC[C@@H]1/C2=C\C1CC1` (stereo partly shown) [compound 618]: 155 nM. The value for `COc1ccc([C@@H]2CO[C@H]3[C@@H]2OC[C@H]3O)cc1C(=O)N[C@H]1[C@@H](C(=O)Nc2ccc(F)c(C(F)(F)F)c2)[C@H]2CC[C@@H]1/C2=C\C1CC1` [compound 620] was 163 nM; that for `COc1ccc(C2=NOC3COCC23)cc1C(=O)N[C@H]1[C@@H](C(=O)NCC2CC(F)(F)C2)[C@H]2CC[C@@H]1/C2=C\C1CC1` (stereo partly shown) [compound 621] was 164 nM.

Take `COc1ccc(C2=NOC3COCC23)cc1C(=O)N[C@H]1[C@@H](C(=O)NCc2ccccc2OC(F)F)[C@H]2CC[C@@H]1/C2=C\C1CC1` (stereo partly shown) [compound 624]: the EC50 was 169 nM. As for `COc1ccc(N2CC[C@H](O)C2=O)cc1C(=O)N[C@H]1[C@@H](C(=O)Nc2ccc(F)c(C(F)(F)F)c2)[C@H]2CC[C@@H]1/C2=C\C1CC1` [compound 627], the EC50 was 176 nM. The value for `O=C(N[C@H]1[C@@H](C(=O)Nc2ccc(F)c(C(F)(F)F)c2)[C@H]2CC[C@@H]1/C2=C\C1CC1)c1cccc(C2=NOC3CC(O)CC23)c1` (stereo partly shown) [compound 628] was 177 nM; that for `COCC1(NC(=O)[C@@H]2[C@H](NC(=O)c3cc(C4=NOC5COCC45)ccc3OC)[C@@H]3CC[C@H]2/C3=C/C2CC2)CCCC1` (stereo partly shown) [compound 632] was 190 nM; that for `COc1ccc(C2=NOC3COCC23)cc1C(=O)N[C@H]1[C@@H](C(=O)NC(C)(C)C#N)[C@H]2CC[C@@H]1/C2=C\C1CC1` (stereo partly shown) [compound 633] was 190 nM. The value for `COc1ccc(C2CCCN2C(=O)CCO)cc1C(=O)N[C@@H]1C2CCC(C2=CC2CC2)[C@@H]1C(=O)Nc1ccc(F)c(C(F)(F)F)c1` (stereo partly shown) [compound 634] was 191 nM; that for `COc1ccc(C2=NOC3COCC23)cc1C(=O)N[C@H]1[C@@H](C(=O)NC2CCC2)[C@H]2CC[C@@H]1/C2=C\C1CC1` (stereo partly shown) [compound 635] was 191 nM. The value for `COc1ccc(N2CCCC2=O)cc1C(=O)N[C@H]1[C@@H](C(=O)Nc2ccc(F)c(C(F)(F)F)c2)[C@H]2CC[C@@H]1/C2=C\C1CC1` [compound 636] was 196 nM; that for `COc1ccc([C@H]2CO[C@@H]3[C@H]2OC[C@H]3O)cc1C(=O)N[C@H]1[C@@H](C(=O)Nc2ccc(F)c(C(F)(F)F)c2)[C@H]2CC[C@@H]1/C2=C\C1CC1` [compound 638] was 207 nM; that for `COc1ccc(N2C[C@H](O)CC2=O)cc1C(=O)N[C@H]1[C@@H](C(=O)Nc2ccc(F)c(C(F)(F)F)c2)[C@H]2CC[C@@H]1/C2=C\C1CC1` [compound 639] was 212 nM. As to `COc1ccc(-c2cc(C(=O)N3CC[C@H](O)C3)on2)cc1C(=O)N[C@H]1[C@@H](C(=O)Nc2ccc(F)c(C(F)(F)F)c2)[C@H]2CC[C@@H]1/C2=C\C1CC1` [compound 640], the EC50 was determined as 214 nM. Consider `COCc1ccccc1CNC(=O)[C@@H]1[C@H](NC(=O)c2cc(C3=NOC4COCC34)ccc2OC)[C@@H]2CC[C@H]1/C2=C/C1CC1` (stereo partly shown) [compound 641], for which the EC50 turned out to be 217 nM.

Regarding `COc1ccc(C2=NOC3(CCCC3)C2)cc1C(=O)N[C@H]1[C@@H](C(=O)Nc2ccc(F)c(C(F)(F)F)c2)[C@H]2CC[C@@H]1/C2=C\C1CC1` [compound 642], the EC50 stood at 219 nM.

In the case of `COc1ccc(C2=NOC3COCC23)cc1C(=O)N[C@H]1[C@@H](C(=O)N[C@@H]2CCOc3ccccc32)[C@H]2CC[C@@H]1/C2=C\C1CC1` (stereo partly shown) [compound 645], the concentration giving a half-maximal response (EC50) came out at 239 nM. Next, `COc1ccc(C2=NOC3COCC23)cc1C(=O)N[C@H]1[C@@H](C(=O)NCc2ccc(Cl)cc2Cl)[C@H]2CC[C@@H]1/C2=C\C1CC1` (stereo partly shown) [compound 646]: 240 nM; `COc1ccc(C2=NOC3COCC23)cc1C(=O)N[C@H]1[C@@H](C(=O)NCCC2CCC2)[C@H]2CC[C@@H]1/C2=C\C1CC1` (stereo partly shown) [compound 648]: 242 nM; `COc1ccc(C2=NOC3COCC23)cc1C(=O)N[C@H]1[C@@H](C(=O)NC2CCC(C(F)(F)F)C2)[C@H]2CC[C@@H]1/C2=C\C1CC1` (stereo partly shown) [compound 649]: 250 nM.

Take `COc1ccc(C2=NOC3COCC23)cc1C(=O)N[C@H]1[C@@H](C(=O)NCCc2cccc(C)c2)[C@H]2CC[C@@H]1/C2=C\C1CC1` (stereo partly shown) [compound 650]: the EC50 turned out to be 262 nM. With `COc1ccc(C2=NOC3COCC23)cc1C(=O)N[C@H]1[C@@H](C(=O)NC2(CO)CCCC2)[C@H]2CC[C@@H]1/C2=C\C1CC1` (stereo partly shown) [compound 651], the EC50 is 269 nM. Take `COc1ccc(C2=NOC3COCC23)cc1C(=O)N[C@H]1[C@@H](C(=O)NC2(Cc3ccccc3)CC2)[C@H]2CC[C@@H]1/C2=C\C1CC1` (stereo partly shown) [compound 653]: the EC50 worked out at 285 nM. Next, `COc1ccc(C2=NOC3COCC23)cc1C(=O)N[C@H]1[C@@H](C(=O)NCc2cc(C)ccc2C(F)(F)F)[C@H]2CC[C@@H]1/C2=C\C1CC1` (stereo partly shown) [compound 659]: 347 nM.

Take `COc1ccc(C2=NOC(CC(C)(C)O)C2)cc1C(=O)N[C@H]1[C@@H](C(=O)NCC(C)(C)C)[C@H]2CC[C@@H]1/C2=C\C1CC1` (stereo partly shown) [compound 660]: the EC50 was 350 nM. Consider `COc1ccc(C2=NOC3COCC23)cc1C(=O)N[C@H]1[C@@H](C(=O)N[C@@H](C)c2ccccc2C(F)(F)F)[C@H]2CC[C@@H]1/C2=C\C1CC1` (stereo partly shown) [compound 665], for which the EC50 is 373 nM. For `COCCN1CCCC1c1ccc(OC)c(C(=O)N[C@@H]2C3CCC(C3=CC3CC3)[C@@H]2C(=O)Nc2ccc(F)c(C(F)(F)F)c2)c1` (stereo partly shown) [compound 666], the EC50 was determined as 373 nM. For the compound `COc1ccc(C2CCCN2C(=O)CCO)cc1C(=O)N[C@@H]1C2CCC(C2=CC2CC2)[C@@H]1C(=O)Nc1ccc(F)c(C(F)(F)F)c1` (stereo partly shown) [compound 667], the EC50 amounted to 384 nM. Next, `COc1ccc(C2=NOC3COCC23)cc1C(=O)N[C@H]1[C@@H](C(=O)NC(C)(C)c2ccccc2Cl)[C@H]2CC[C@@H]1/C2=C\C1CC1` (stereo partly shown) [compound 669]: 416 nM; `COc1ccc(C2CCCN2C(=O)C(C)(C)O)cc1C(=O)N[C@@H]1C2CCC(C2=CC2CC2)[C@@H]1C(=O)Nc1ccc(F)c(C(F)(F)F)c1` (stereo partly shown) [compound 671]: 451 nM. Turning to `COc1ccc(C2=NOC3COCC23)cc1C(=O)N[C@H]1[C@@H](C(=O)NCc2c(C)noc2C)[C@H]2CC[C@@H]1/C2=C\C1CC1` (stereo partly shown) [compound 673], the EC50 turned out to be 477 nM. The value for `COc1ccc(C2=NOC3COCC23)cc1C(=O)N[C@H]1[C@@H](C(=O)NCC2(C)COC2)[C@H]2CC[C@@H]1/C2=C\C1CC1` (stereo partly shown) [compound 675] was 485 nM.

Source of the values: patent US20250221966A1, “RXFP1 AGONISTS” (BRISTOL-MYERS SQUIBB COMPANY, priority 2021, published 2025).
